# Experimental data taken from patent publication US5468767A, “Antidepressant 3-(aminocycloalkenyl)-indole-5-nitrile derivatives” (Bristol-Myers Squibb Company, priority 1994, dated 1995).
# Test system: synaptosomal re-uptake of tritiated serotonin
# Assay: In vitro inhibition of synaptosomal re-uptake of tritiated serotonin (5-HT uptake inhibition)
# Assay type: biochemical
# Protocol: Determination of endogenous monoaminergic re-uptake inhibition values both for serotonin and norepinephrine was accomplished using test methods described by P. Skolnick, et al., Br. J. Pharmacology, (1985), 86, pp. 637-644; with only minor modifications. In vitro IC50 (nM) test values were determined for representative compounds of Formula I based on their inhibition of synaptosomal re-uptake of tritiated serotonin. Test data IC50 values lower than 500 nM are considered to reflect activity as an inhibitor of serotonin re-uptake.
# In vitro IC50 (nM) test values below 100 nM are designated with ** and those below 10 nM with ***.
row,SMILES,IC50
1,CN(C)C1CC=C(c2c[nH]c3ccc(C#N)cc23)CC1 (stereo not drawn) [Example 23],< 10 nM
2,CCN(CC)C1CC=C(c2c[nH]c3ccc(C#N)cc23)CC1 (stereo not drawn) [Example 24],< 100 nM
3,CC(C)NC1CC=C(c2c[nH]c3ccc(C#N)cc23)CC1 (stereo not drawn) [Example 26],< 100 nM
4,N#Cc1ccc2[nH]cc(C3=CCC(NCc4ccccc4)CC3)c2c1 (stereo not drawn) [Example 27],< 10 nM
5,N#Cc1ccc2[nH]cc(C3=CCC(NCCc4ccccc4)CC3)c2c1 (stereo not drawn) [Example 28],< 10 nM
6,CN(CCc1ccccc1)C1CC=C(c2c[nH]c3ccc(C#N)cc23)CC1 (stereo not drawn) [Example 29],< 10 nM
7,N#Cc1ccc2[nH]cc(C3=CCC(NCCc4cccc(F)c4)CC3)c2c1 (stereo not drawn) [Example 30],< 10 nM
8,"N#CCc1ccc2[nH]cc(C3=CCC(NCCc4ccccc4)CC3)c2c1 (stereo not drawn) [Example 31, 3-[[4-(2-Phenylethyl)amino]-1-cyclohexen-1-yl]-1H-indole-5-acetonitrile]",< 100 nM
9,N#Cc1ccc2[nH]cc(C3=CCC(NCCc4ccccc4F)CC3)c2c1 (stereo not drawn) [Example 32],< 10 nM
10,N#Cc1ccc2[nH]cc(C3=CCC(NCCc4ccc(F)cc4)CC3)c2c1 (stereo not drawn) [Example 33],< 10 nM
11,COc1ccccc1CCNC1CC=C(c2c[nH]c3ccc(C#N)cc23)CC1 (stereo not drawn) [Example 34],< 10 nM
12,COc1cccc(CCNC2CC=C(c3c[nH]c4ccc(C#N)cc34)CC2)c1 (stereo not drawn) [Example 35],< 10 nM
13,COc1ccc(CCNC2CC=C(c3c[nH]c4ccc(C#N)cc34)CC2)cc1 (stereo not drawn) [Example 36],< 10 nM
14,N#Cc1ccc2[nH]cc(C3=CCC(NCCc4cccnc4)CC3)c2c1 (stereo not drawn) [Example 37],< 10 nM
15,N#Cc1ccc2[nH]cc(C3=CCC(NCCCc4ccccc4)CC3)c2c1 (stereo not drawn) [Example 38],< 10 nM
16,N#Cc1ccc2[nH]cc(C3=CCC(NCC4COc5ccccc5O4)CC3)c2c1 (stereo not drawn) [Example 39],< 10 nM
17,N#Cc1ccc2[nH]cc(C3=CCC(NCCCCc4ccccc4)CC3)c2c1 (stereo not drawn) [Example 40],< 10 nM
18,CCNC1CC=C(c2c[nH]c3ccc(C#N)cc23)CC1 (stereo not drawn) [Example 41],< 100 nM
